From patent US20260262643A1, “HERBICIDAL BENZOXAZINES” (FMC CORPORATION, priority 2022, published 2026)

Legend:
[1] = system: wheat; assay: Test C postemergence; type: in vivo, Triticum aestivum; settings: 10 days, 0 to 100 scale (0 no effect, 100 complete control)
In short: (§1)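 Visual injury ratings on a 0–100 scale (100 = complete control) were made against untreated controls 10 days after treatment in the greenhouse. Compounds, formulated with surfactant in non-phytotoxic solvent, were sprayed on soil preemergence or onto one- to two-leaf plants 2–10 cm tall postemergence.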

[2] = system: horseweed; assay: Test C postemergence; type: in vivo, Erigeron canadensis; settings: 10 days, 0 to 100 scale (0 no effect, 100 complete control)
In short: as §1

[3] = system: pigweed, palmer; assay: Test C preemergence; type: in vivo, Amaranthus palmeri; settings: for Pigweed, Palmer plant response rating: 500 g ai/ha, preemergence, 0 to 100 scale (0 no effect, 100 complete control); for Plant response rating, Pigweed, Palmer: Preemergence, 125 g ai/ha, 0 to 100 scale, 0 no effect, 100 complete control
In short: as §1

[4] = system: barnyardgrass; assay: Test C preemergence; type: in vivo, Echinochloa crusgalli; settings: for Barnyardgrass plant response rating: 500 g ai/ha, preemergence, 0 to 100 scale (0 no effect, 100 complete control); for Plant response rating, Barnyardgrass: Preemergence, 125 g ai/ha, 0 to 100 scale, 0 no effect, 100 complete control
In short: as §1

[5] = system: foxtail, giant; assay: Test C postemergence; type: in vivo, Setaria faberi; settings: 10 days, 0 to 100 scale (0 no effect, 100 complete control)
In short: as §1

[6] = system: ryegrass, Italian; assay: Test C preemergence; type: in vivo, Lolium multiflorum; settings: for Ryegrass, Italian plant response rating: 500 g ai/ha, preemergence, 0 to 100 scale (0 no effect, 100 complete control); for Plant response rating, Ryegrass, Italian: Preemergence, 125 g ai/ha, 0 to 100 scale, 0 no effect, 100 complete control
In short: as §1

[7] = system: sedge, umbrella; assay: Test D flooded paddy test; type: in vivo, Cyperus difformis; settings: 250 g ai/ha, applied to paddy water, visual rating after 13 to 14 days, scale 0 to 100 (0 no effect, 100 complete control)
In short: (§2)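 Visual ratings from 0, meaning no effect, to 100, meaning complete control, were assigned against untreated controls 13 to 14 days after compounds were added to the floodwater of pots kept 3 cm deep, with plants at the 2-leaf stage.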

[8] = system: ducksalad; assay: Test D flooded paddy test; type: in vivo, Heteranthera limosa; settings: 250 g ai/ha, applied to paddy water, visual rating after 13 to 14 days, scale 0 to 100 (0 no effect, 100 complete control)
In short: as §2

[9] = system: corn; assay: Test C postemergence; type: in vivo, Zea mays; settings: 10 days, 0 to 100 scale (0 no effect, 100 complete control)
In short: as §1

[10] = system: oat, wild; assay: Test C preemergence; type: in vivo, Avena fatua; settings: for Oat, Wild plant response rating: 500 g ai/ha, preemergence, 0 to 100 scale (0 no effect, 100 complete control); for Plant response rating, Oat, Wild: Preemergence, 125 g ai/ha, 0 to 100 scale, 0 no effect, 100 complete control
In short: as §1

[11] = system: oat, wild; assay: Test C postemergence; type: in vivo, Avena fatua; settings: 10 days, 0 to 100 scale (0 no effect, 100 complete control)
In short: as §1

[12] = system: barnyardgrass; assay: Test D flooded paddy test; type: in vivo, Echinochloa crus-galli; settings: 250 g ai/ha, applied to paddy water, visual rating after 13 to 14 days, scale 0 to 100 (0 no effect, 100 complete control)
In short: as §2

[13] = system: rice; assay: Test D flooded paddy test; type: in vivo, Oryza sativa; settings: 250 g ai/ha, applied to paddy water, visual rating after 13 to 14 days, scale 0 to 100 (0 no effect, 100 complete control)
In short: as §2

[14] = system: ragweed; assay: Test C preemergence; type: in vivo, Ambrosia artemisiifolia; settings: for Plant response rating, Ragweed: Preemergence, 125 g ai/ha, 0 to 100 scale, 0 no effect, 100 complete control
In short: as §1

[15] = system: ryegrass, Italian; assay: Test C postemergence; type: in vivo, Lolium multiflorum; settings: 10 days, 0 to 100 scale (0 no effect, 100 complete control)
In short: as §1

[16] = system: foxtail, giant; assay: Test C preemergence; type: in vivo, Setaria faberi; settings: for Foxtail, Giant plant response rating: 500 g ai/ha, preemergence, 0 to 100 scale (0 no effect, 100 complete control); for Plant response rating, Foxtail, Giant: Preemergence, 125 g ai/ha, 0 to 100 scale, 0 no effect, 100 complete control
In short: as §1

[17] = system: barnyardgrass; assay: Test C postemergence; type: in vivo, Echinochloa crusgalli; settings: 10 days, 0 to 100 scale (0 no effect, 100 complete control)
In short: as §1

[18] = system: blackgrass; assay: Test C preemergence; type: in vivo, Alopecurus myosuroides; settings: for Blackgrass plant response rating: 500 g ai/ha, preemergence, 0 to 100 scale (0 no effect, 100 complete control); for Plant response rating, Blackgrass: Preemergence, 125 g ai/ha, 0 to 100 scale, 0 no effect, 100 complete control
In short: as §1

[19] = system: pigweed, palmer; assay: Test C postemergence; type: in vivo, Amaranthus palmeri; settings: 10 days, 0 to 100 scale (0 no effect, 100 complete control)
In short: as §1

[20] = system: soybean; assay: Test C postemergence; type: in vivo, Glycine max; settings: 10 days, 0 to 100 scale (0 no effect, 100 complete control)
In short: as §1

[21] = system: corn; assay: Test C preemergence; type: in vivo, Zea mays; settings: for Corn plant response rating: 500 g ai/ha, preemergence, 0 to 100 scale (0 no effect, 100 complete control); for Plant response rating, Corn: Preemergence, 125 g ai/ha, 0 to 100 scale, 0 no effect, 100 complete control
In short: as §1

[22] = system: kochia; assay: Test C preemergence; type: in vivo, Bassia scoparia; settings: for Kochia plant response rating: 500 g ai/ha, preemergence, 0 to 100 scale (0 no effect, 100 complete control); for Plant response rating, Kochia: Preemergence, 125 g ai/ha, 0 to 100 scale, 0 no effect, 100 complete control
In short: as §1

[23] = system: kochia; assay: Test C postemergence; type: in vivo, Bassia scoparia; settings: 10 days, 0 to 100 scale (0 no effect, 100 complete control)
In short: as §1

[24] = system: soybean; assay: Test C preemergence; type: in vivo, Glycine max; settings: for Soybean plant response rating: 500 g ai/ha, preemergence, 0 to 100 scale (0 no effect, 100 complete control); for Plant response rating, Soybean: Preemergence, 125 g ai/ha, 0 to 100 scale, 0 no effect, 100 complete control
In short: as §1

[25] = system: blackgrass; assay: Test C postemergence; type: in vivo, Alopecurus myosuroides; settings: 10 days, 0 to 100 scale (0 no effect, 100 complete control)
In short: as §1

[26] = system: wheat; assay: Test C preemergence; type: in vivo, Triticum aestivum; settings: for Wheat plant response rating: 500 g ai/ha, preemergence, 0 to 100 scale (0 no effect, 100 complete control); for Plant response rating, Wheat: Preemergence, 125 g ai/ha, 0 to 100 scale, 0 no effect, 100 complete control
In short: as §1

[27] = system: galium; assay: Test C postemergence; type: in vivo, Galium aparine; settings: 10 days, 0 to 100 scale (0 no effect, 100 complete control)
In short: as §1

[28] = system: ragweed; assay: Test C postemergence; type: in vivo, Ambrosia artemisiifolia; settings: 10 days, 0 to 100 scale (0 no effect, 100 complete control)
In short: as §1

C=C(C)c1cc(C(=O)N2C[C@H](C)Oc3c(Cl)cccc32)cc(-n2cncn2)c1 [Compound 317]
Plant response rating, Wheat ([1]; 500 g ai/ha, postemergence): 20
Plant response rating, Wheat ([1]; Postemergence, 125 g ai/ha): 10
Plant response rating, Horseweed ([2]; 500 g ai/ha, postemergence): 0
Plant response rating, Horseweed ([2]; Postemergence, 125 g ai/ha): 0
Pigweed, Palmer plant response rating [3]: 90
Plant response rating, Pigweed, Palmer [3]: 20
Barnyardgrass plant response rating [4]: 50
Plant response rating, Barnyardgrass [4]: 0
Plant response rating, Foxtail, Giant ([5]; 500 g ai/ha, postemergence): 70
Plant response rating, Foxtail, Giant ([5]; Postemergence, 125 g ai/ha): 10
Ryegrass, Italian plant response rating [6]: 60
Plant response rating, Ryegrass, Italian [6]: 40
Plant response rating, Sedge, Umbrella (Flood) [7]: 0
Plant response rating, Ducksalad (Flood) [8]: 0
Plant response rating, Corn ([9]; 500 g ai/ha, postemergence): 40
Plant response rating, Corn ([9]; Postemergence, 125 g ai/ha): 10
Oat, Wild plant response rating [10]: 40
Plant response rating, Oat, Wild [10]: 0
Plant response rating, Oat, Wild ([11]; 500 g ai/ha, postemergence): 30
Plant response rating, Oat, Wild ([11]; Postemergence, 125 g ai/ha): 0
Plant response rating, Barnyardgrass (Flood) [12]: 0
Plant response rating, Rice (Flood) [13]: 0
Ragweed plant response rating ([14]; 500 g ai/ha, preemergence, 0 to 100 scale (0 no effect, 100 complete control)): 0
Plant response rating, Ragweed [14]: 0
Plant response rating, Ryegrass, Italian ([15]; 500 g ai/ha, postemergence): 40
Plant response rating, Ryegrass, Italian ([15]; Postemergence, 125 g ai/ha): 0
Foxtail, Giant plant response rating [16]: 90
Plant response rating, Foxtail, Giant [16]: 10
Plant response rating, Barnyardgrass ([17]; 500 g ai/ha, postemergence): 70
Plant response rating, Barnyardgrass ([17]; Postemergence, 125 g ai/ha): 10
Blackgrass plant response rating [18]: 50
Plant response rating, Blackgrass [18]: 0
Plant response rating, Pigweed, Palmer ([19]; 500 g ai/ha, postemergence): 50
Plant response rating, Pigweed, Palmer ([19]; Postemergence, 125 g ai/ha): 10
Plant response rating, Soybean ([20]; 500 g ai/ha, postemergence): 100
Plant response rating, Soybean ([20]; Postemergence, 125 g ai/ha): 70
Corn plant response rating [21]: 10
Plant response rating, Corn [21]: 0
Kochia plant response rating [22]: 0
Plant response rating, Kochia [22]: 0
Plant response rating, Kochia ([23]; 500 g ai/ha, postemergence): 70
Plant response rating, Kochia ([23]; Postemergence, 125 g ai/ha): 20
Soybean plant response rating [24]: 0
Plant response rating, Soybean [24]: 0
Plant response rating, Blackgrass ([25]; 500 g ai/ha, postemergence): 60
Plant response rating, Blackgrass ([25]; Postemergence, 125 g ai/ha): 0
Wheat plant response rating [26]: 0
Plant response rating, Wheat [26]: 0
Plant response rating, Galium ([27]; 500 g ai/ha, postemergence): 70
Plant response rating, Galium ([27]; Postemergence, 125 g ai/ha): 50
Plant response rating, Ragweed ([28]; 500 g ai/ha, postemergence): 0
Plant response rating, Ragweed ([28]; Postemergence, 125 g ai/ha): 0

CC(C)(C)c1ncn(-c2cc(C(=O)N3CC(C(F)(F)F)Oc4c(Cl)cccc43)ccn2)n1 (stereo not shown) [Compound 322]
Plant response rating, Wheat ([1]; 500 g ai/ha, postemergence): 20
Plant response rating, Wheat ([1]; Postemergence, 125 g ai/ha): 20
Plant response rating, Horseweed ([2]; 500 g ai/ha, postemergence): 0
Plant response rating, Horseweed ([2]; Postemergence, 125 g ai/ha): 0
Pigweed, Palmer plant response rating [3]: 90
Plant response rating, Pigweed, Palmer [3]: 40
Barnyardgrass plant response rating [4]: 90
Plant response rating, Barnyardgrass [4]: 40
Plant response rating, Foxtail, Giant ([5]; 500 g ai/ha, postemergence): 90
Plant response rating, Foxtail, Giant ([5]; Postemergence, 125 g ai/ha): 50
Ryegrass, Italian plant response rating [6]: 80
Plant response rating, Ryegrass, Italian [6]: 60
Plant response rating, Sedge, Umbrella (Flood) [7]: 0
Plant response rating, Ducksalad (Flood) [8]: 0
Plant response rating, Corn ([9]; 500 g ai/ha, postemergence): 10
Plant response rating, Corn ([9]; Postemergence, 125 g ai/ha): 10
Oat, Wild plant response rating [10]: 30
Plant response rating, Oat, Wild [10]: 0
Plant response rating, Oat, Wild ([11]; 500 g ai/ha, postemergence): 30
Plant response rating, Oat, Wild ([11]; Postemergence, 125 g ai/ha): 0
Plant response rating, Barnyardgrass (Flood) [12]: 0
Plant response rating, Rice (Flood) [13]: 0
Plant response rating, Ragweed [14]: 0
Plant response rating, Ryegrass, Italian ([15]; 500 g ai/ha, postemergence): 40
Plant response rating, Ryegrass, Italian ([15]; Postemergence, 125 g ai/ha): 20
Foxtail, Giant plant response rating [16]: 100
Plant response rating, Foxtail, Giant [16]: 90
Plant response rating, Barnyardgrass ([17]; 500 g ai/ha, postemergence): 50
Plant response rating, Barnyardgrass ([17]; Postemergence, 125 g ai/ha): 40
Blackgrass plant response rating [18]: 40
Plant response rating, Blackgrass [18]: 40
Plant response rating, Pigweed, Palmer ([19]; 500 g ai/ha, postemergence): 90
Plant response rating, Pigweed, Palmer ([19]; Postemergence, 125 g ai/ha): 50
Plant response rating, Soybean ([20]; 500 g ai/ha, postemergence): 100
Plant response rating, Soybean ([20]; Postemergence, 125 g ai/ha): 60
Corn plant response rating [21]: 30
Plant response rating, Corn [21]: 30
Kochia plant response rating [22]: 40
Plant response rating, Kochia [22]: 20
Plant response rating, Kochia ([23]; 500 g ai/ha, postemergence): 80
Plant response rating, Kochia ([23]; Postemergence, 125 g ai/ha): 60
Soybean plant response rating [24]: 70
Plant response rating, Soybean [24]: 0
Plant response rating, Blackgrass ([25]; 500 g ai/ha, postemergence): 40
Plant response rating, Blackgrass ([25]; Postemergence, 125 g ai/ha): 10
Wheat plant response rating [26]: 20
Plant response rating, Wheat [26]: 0
Plant response rating, Galium ([27]; 500 g ai/ha, postemergence): 70
Plant response rating, Galium ([27]; Postemergence, 125 g ai/ha): 70
Plant response rating, Ragweed ([28]; 500 g ai/ha, postemergence): 50
Plant response rating, Ragweed ([28]; Postemergence, 125 g ai/ha): 40
